Measurements: patent publication EP0086647A2, “Pyrimidone compounds, their preparation, and pharmaceutical compositions containing them” (YAMANOUCHI PHARMACEUTICAL CO. LTD., priority 1982, dated 1983)
Structures can show the parent of a compound that is named as a salt.

Legend:
[1] = test system: gastric acid secretion; experiment: Acid inhibition, Shay (4hr.) / (Dog), results table; format: in vivo
[2] = Cytoprotective action (animal experiment methods, not described); format: in vivo; set-up: key: *: These compounds also have cytoprotective action

Row | SMILES | Acid Inhibition Shay(4hr.) (mg./kg.) (Dog) ([1]; dose 3mg (mg./kg.)) | Acid Inhibition Shay(4hr.) (mg./kg.) (Dog) ([1]; dose 0.1mg (mg./kg.)) | cytoprotective action [2]
1 | CCN(CC)CCCc1c(C)[nH]c(CCSCc2csc(N=C(N)N)n2)nc1=O [Example 17, 2-(2-[[[2-((diaminomethylene)amino)-4-t:hiazolyl]methyl]-thio]ethyl]-5-(3-diethylaminopropyl)-6-methyl-4(1H)-pyrimidone tri-hydrochloride] | 83%(3mg) |  | 
2 | CCc1c(C)[nH]c(CCSCc2csc(N=C(N)N)n2)nc1=O [Example 27, 2-[2-[[[2-[(diaminomethylene)amino)-4-thiazolyl]methyl]thio]-ethyl]-5-ethyl-6-methyl-4(1H)-pyrimidone] |  | 90%(0.1mg) | 
3 | CCCc1c(C)[nH]c(CCSCc2csc(N=C(N)N)n2)nc1=O [Example 28] |  | 60%(0.1mg) | 
4 | C#CCc1c(C)[nH]c(CCSCc2csc(N=C(N)N)n2)nc1=O [Example 29, 2-[2-[[[2-[(diaminomethylene)amino]-4-thiazolyl]methyl]thio]-ethyl]-6-methyl-5-(2-propinyl)-4(1H)-pyrimidone] |  | 95%(0.1mg) | 
5 | CCCCc1c(C)[nH]c(CCSCc2csc(N=C(N)N)n2)nc1=O [Example 30, 2-[2-[[[2-[(diaminomethylene)amino]-4-thiazolyl]methyl]thio]-ethyl]-5-n-butyl-6-methy-1-4(1H)-pyrimidone di-hydrochloride] |  | 70%(0.1mg) | R=butyl*
6 | CCCCCc1c(C)[nH]c(CCSCc2csc(N=C(N)N)n2)nc1=O.Cl.Cl [Example 31, 2-[2-[[[2-[(diaminomethylene)amino]-4-thiazolyl]methyl]thio]-ethyl]-6-methyl-5-n-pentyl-4(1H)-pyrimidone di-hydrochloride] |  | 95%(0.1mg) | R=amyl*
7 | Cc1[nH]c(CCSCc2csc(N=C(N)N)n2)nc(=O)c1CCC(C)C [Example 32, 2-[2-[[[2-[(diaminomethylene)amino]-4-thiazolyl]methyl]thio]-ethyl)-6-methyl-5-(3-methylbutyl)-4(lH)-pyrimidone di-hydrochloride] |  |  | R=iso-amyl*
